Laboratory results taken from patent EP3852878B1, “DICYCLANIL SALT WITH DODECYLBENZENESULFONATE AND USE OF SUCH A SALT IN COMBATING PARASITES” (ICB Pharma Spólka Jawna, priority 2018, dated 2020).

Key:
[1] = cited from earlier work
[2] = Comparative solubility tests in water (10% aqueous dispersion mixed, filtered, dicyclanil determined in the filtrate by HPLC); format: physicochemical; conditions: laboratory mixer, 20 °C
Description: To document the unexpectedly low water solubility of the present salt, i.e. dicyclanil dodecylbenzenesulfonate, comparative solubility tests were carried out after 4 and 24 hours of mixing of 10% aqueous dispersion of the present salt, as well as free dicyclanil alone, in a laboratory mixer at 20 °C, after which the sample was filtered and the free/bound dicyclanil was determined in a filtrate by a HPLC method.

Compound	solubility ([1]; in water, known dicyclanil salt) [%]	Solubility in water after 4 h of mixing [2] [%]	solubility in water ([1]; at 20 °C)	Solubility in water after 24 h of mixing ([2]; 24 h) [%]
CS(=O)(=O)O.N#Cc1c(N)nc(NC2CC2)nc1N [salt with methanesulfonic acid]	> 5	–	–	–
N#Cc1c(N)nc(NC2CC2)nc1N [Technical dicyclanil TC 99.0%, 4,6-diamino-2-cyolopropylaminopyrimidine-5-carbonitrile]	–	0.312	approximately 0.3 % by weight	–
4,6-diamino-2-cyclopropylaminopyrimidine-5-carbonitrile dodecylbenzenesulfonate	–	0.0490	–	0.0495
